# According to US20240401094A1, “SOLID FORM OF (-)-AMBROX FORMED BY A BIOCONVERSION OF HOMOFARNESOL IN THE PRESENCE OF A BIOCATALYST” (Givaudan SA, priority 2016, published 2024):
# Experiment: Sensory analysis (odour / GC-detection threshold and odour character)
# Conditions: for odour description: result in words
# From the text: Purpose: to Carry Out a Sensory Analysis of (−)-Ambrox and the Compounds (II), (III) and (IV) Formed in the Crude Material and in the Crystallised Material.
smiles,measurement,setting,value
CC1(C)CCC[C@]2(C)[C@H]3CCO[C@]3(C)CC[C@@H]12 [(−)-Ambrox],Odour Threshold,sensory analysis,0.2 ng/L
CC1(C)CCC[C@@]2(C)[C@H]1CC[C@]1(C)OCC[C@@H]21 [Compound (IV)],GC-detection threshold,sensory analysis,5 to 10 ng
same,odour description,sensory analysis,"weak, IsoE, woody"
same,odour description,"sensory analysis, listed as IV",weaker odour
"CC1(C)CCC[C@@]2(C)[C@H]1CC[C@@]1(C)OCC[C@@H]21 [Compound (III), epi-Ambrox]",GC-threshold relative to (−)-Ambrox (times higher),compared with (−)-Ambrox,about 10 ×
same,odor weaker than (−)-Ambrox,compared with (−)-Ambrox,about 10 fold
same,GC-detection threshold,sensory analysis,circa 2 ng
same,odour description,"sensory analysis, listed as Compound III",essentially odorless
same,odour description,"sensory analysis, listed as III",weaker odour
C/C1=C/CCO[C@@]2(C)CCCC(C)(C)[C@@H]2CC1 [Compound (II)],detection threshold,as stated in the description,> 500 ng/L
same,GC-detection threshold,sensory analysis,> 500 ng
same,odour description,sensory analysis,“odorless”
same,odour description,"sensory analysis, listed as II",weaker odour
same,odour description,"sensory analysis, listed as compound of formula (II)",practically odourless
